Measurements published in patent US10570097B2, “Antimicrobial imidazolium compounds” (AGENCY FOR SCIENCE, TECHNOLOGY AND RESEARCH, priority 2014, dated 2020).
Read-outs that look alike come from different tables or passages of the source.

Columns and labels:
E. coli [1] = assay: Minimum inhibitory concentration by microdilution assay; type: cell-based, Escherichia coli (ATCC 25922); settings: for MIC E. coli: 37° C., 24 h
Protocol: (§1) Staphylococcus aureus (ATCC 6538, gram-positive), Escherichia coli (ATCC 25922, gram-negative), Pseudomonas aeruginosa (gram-negative), and Candida albicans (ATCC 10231, yeast) were used as representative microorganisms to challenge the antimicrobial functions of the imidazolium salts. All bacteria and yeast were stored frozen at −80° C., and were grown overnight at 37° C. in Tryptic Soy broth (TSB) prior to experiments. Yeast was grown overnight at 22° C. in Yeast Mold (YM) broth. Subsamples of these cultures were grown for 3 h further and diluted to give an optical density value of 0.07 at 600 nm, corresponding to 3×10^8 CFU mL^−1 (MacFarland's Standard).
(§2) The oligomer compounds were dissolved in PBS at a concentration of 1 mg mL^1 and the minimal inhibitory concentrations (MICs) were determined by microdilution assay. Typically, a 100 μL microbial solutions (containing 3×10^8 cells mL^−1) were added to 100 μL of PBS containing the test imidazolium salts (normally ranging from […] in serial two-fold dilutions) in each well of the 96-well microtiter plate. The plates were incubated at 37° C. for 24 h with shaking at 300 rpm, with monitoring at the 2, 4, 6, 8, and 24 h time points. […] Broth and PBS solution containing microbial cells alone were used as negative controls, and experiments were run in triplicates.

S. aureus = assay: as above; type: cell-based, Staphylococcus aureus (ATCC 6538); settings: 37° C., 24 h
Protocol: as §1, §2

P. aeruginosa = assay: as above; type: cell-based, Pseudomonas aeruginosa; settings: 37° C., 24 h
Protocol: as §1, §2

C. Albicans = assay: as above; type: cell-based, Candida albicans (ATCC 10231); settings: 24 h
Protocol: as §1, §2

[2] = system: 4 microbes (S. aureus, E. coli, P. aeruginosa, C. Albicans); assay: MIC over the 4 microbes tested (geometric mean); type: cell-based; settings: geometric mean of the MICs of the 4 microbes
Protocol: Staphylococcus aureus (ATCC 6538, gram-positive), Escherichia coli (ATCC 25922, gram-negative), Pseudomonas aeruginosa (gram-negative), and Candida albicans (ATCC 10231, yeast) were used as representative microorganisms to challenge the antimicrobial functions of the imidazolium salts. All bacteria and yeast were stored frozen at −80° C., and were grown overnight at 37° C. in Tryptic Soy broth (TSB) prior to experiments. Yeast was grown overnight at 22° C. in Yeast Mold (YM) broth. […] Typically, a 100 μL microbial solutions (containing 3×10^8 cells mL^−1) were added to 100 μL of PBS containing the test imidazolium salts (normally ranging from […] in serial two-fold dilutions) in each well of the 96-well microtiter plate. The plates were incubated at 37° C. for 24 h with shaking at 300 rpm, with monitoring at the 2, 4, 6, 8, and 24 h time points. […] Broth and PBS solution containing microbial cells alone were used as negative controls, and experiments were run in triplicates. The selectivity of the materials was also further assessed, by calculating the selectivity indices (SI), a measure and a comparison of safety and efficacies of each oligomer compound. […] Herein, the more stringent control of HC10 value was chosen over the HC50 value often reported in literature.

[3] = system: rat red blood cells (RBCs); assay: Hemolysis; type: cell-based
Protocol: Before these materials can be used in systemic applications, selectivity of these materials for microbial cells over mammalian cells should also be considered. Such selectivity is often determined by observation of hemolysis. Hemolysis was performed in the following manner, fresh rat red blood cells (RBCs) were diluted with PBS buffer to give an RBC stock suspension (4 vol % blood cells). A 100 μL aliquot of RBC stock was added to a 96-well plate containing […] oligomer compound stock solutions of various concentrations (serial 2-fold dilution in PBS). After 1 h incubation at 37° C., The contents of each well was pipetted into a microcentrifuge tube and then centrifuged at 4000 rpm for 5 min. Hemolytic activity was determined as a function of hemoglobin release by measuring OD576 of […] of the supernatant. A control solution that contained only PBS was used as a reference for 0% hemolysis. 100% hemolysis was measured by adding 0.5% Triton-X to the RBCs. [formula] The selectivity of the materials was also further assessed, by calculating the selectivity indices (SI), a measure and a comparison of safety and efficacies of each oligomer compound. […] Herein, the more stringent control of HC10 value was chosen over the HC50 value often reported in literature.

E. coli [4] = assay: Time kill kinetics; type: cell-based, Escherichia coli; settings: for fast killing in words: E. coli time kill; for % kill / Log reduction: E. coli, 4MIC, two minutes
Protocol: Time kill studies of the soligome compounds against E. coli were also studied. The experimental setup for time kill kinetics was similar to the set up for MBC determination. The microbes were treated with oligomer compounds at 4MIC concentration, and samples were taken out of each well at 2 minutes. 500 μl of cell suspension was removed, rescued by a series of 10-fold dilutions with growth medium, and kept on ice until plating. For plating, 50 μl to 200 μl of the diluted samples was spread on growth medium agar plates and colonies were counted after overnight incubation at 37° C.

[5] = Critical micellar concentration (pyrene fluorescent probe); type: physicochemical; settings: for CMC in PBS: PBS buffer solution; for CMC in DI H2O: deionised water
Protocol: The CMC values of the oligomer compounds were determined in both deionised (DI) water and PBS, using a LS50B luminescence spectrometer (Perkin Elmer, United States) and employing pyrene as a fluorescent probe. A known weight of the oligomer compound was dissolved in either 2 mL of DI water or PBS in a 4 mL glass vial and serial dilutions were effected. 10 μL of pyrene stock solution in acetone (6.16×10^-5 M) was added to each vial containing 1 mL of a known concentration of the oligomer compound, and the acetone was then evaporated at room temperature. The solution was allowed to equilibrate overnight and the final concentration of pyrene in each vial was 6.16×10^-7 M. The excitation spectra of the solutions were scanned from 300 to 360 nm with an emission wavelength of 395 nm, and both the excitation and emission bandwidths were set at 2.5 nm. The intensity ratios ([…]/[…]) were plotted against polymer concentration. The CMC value was given by the intersection of the tangent to the curve at the inflection and the tangent of the points at low polymer concentrations.

[6] = Gelling properties in solvents (tube inversion test); type: physicochemical
Protocol: Gels were prepared by weighing the imidazolium oligomer compounds directly into 4 mL glass vials and subsequently adding a known weight or volume of the solvent. The vials containing both the imidazolium and the solvent were either vortexed or sonicated to ensure that the imidazolium was dissolved and dispersed thoroughly before being placed in a 4° C. fridge overnight. The tube inversion test method was used to examine gel formation in different solvents.

[7] = lowest concentration that induces 10% or more hemolysis, rat RBCs, 1 h, 37° C., maximum tested 100,000 ppm

| SMILES | MIC S.A. (S. aureus) | MIC E. coli (E. coli [1]) | MIC P.A. (P. aeruginosa) | MIC C.A. (C. Albicans) | MIC GM [2] | State in solvent ([6]; Acetone) | State in solvent ([6]; Acetonitrile) | Concentration to form gel ([6]; EtOH) | State in solvent ([6]; EtOH) | State in solvent ([6]; Ethylene glycol) | State in solvent ([6]; Glycerol) | Concentration to form gel ([6]; nBuOH) | State in solvent ([6]; nBuOH) | Concentration to form gel ([6]; nPrOH) | State in solvent ([6]; nPrOH) | CMC in PBS [5] | CMC in DI H2O [5] | fast killing in words (E. coli [4]) | % kill (E. coli [4]) | HC10 [3, 7] | also measured |
| --- | --- | --- | --- | --- | --- | --- | --- | --- | --- | --- | --- | --- | --- | --- | --- | --- | --- | --- | --- | --- | --- |
| CCCCCCCC[n+]1ccn(C)c1.[Br-] [1-Methyl-3-octyl imidazolium bromide, reference compound] |  |  |  |  |  |  |  |  |  |  |  |  |  |  |  |  |  |  |  |  | MIC (E. coli [1]; Escherichia coli, Example 8, microbe not named, E. coli context): 1000 mg/L; MIC relative to Compound 2 (E. coli [1]; ratio of MIC to that of Compound 2): more than 100 times |
| CCCCCCCCCC[n+]1ccn(Cc2ccc(C[n+]3ccn(Cc4ccc(C[n+]5ccn(Cc6ccccc6Cn6cc[n+](Cc7ccc(Cn8cc[n+](Cc9ccc(Cn%10cc[n+](CCCCCCCCCC)c%10)cc9)c8)cc7)c6)c5)cc4)c3)cc2)c1.[Br-].[Br-].[Cl-].[Cl-].[Cl-].[Cl-] [Compound 3] | 4 mg/L | 8 mg/L | 8 mg/L | 31 mg/L | 9.44 mg/L | Insoluble | Insoluble | (12 wt %) | Gel | Solution | Solution | (7.9 wt %) | Gel | (7.9 wt %) | Gel |  |  | instantaneous elimination | >99.9% |  | HC10 [3]: 500 ppm; Log reduction (E. coli [4]): 3.49; sharp point of inflection indicating the critical micellar concentrations ([5]; FIG. 4, deionized water): not observed |
| CCCCCCCCCCCC[n+]1ccn(Cc2ccc(C[n+]3ccn(Cc4ccc(C[n+]5ccn(Cc6ccccc6Cn6cc[n+](Cc7ccc(Cn8cc[n+](Cc9ccc(Cn%10cc[n+](CCCCCCCCCCCC)c%10)cc9)c8)cc7)c6)c5)cc4)c3)cc2)c1.[Br-].[Br-].[Cl-].[Cl-].[Cl-].[Cl-] [Compound 4] | 4 mg/L | 8 mg/L | 16 mg/L | 31 mg/L | 11.22 mg/L | Insoluble | Insoluble | (9.0 wt %) | Gel | Solution | Solution | (5.8 wt %) | Gel | (7.2 wt %) | Gel | 10.9 ppm | 938.5 ppm | instantaneous elimination | >99.9% | 31 ppm | Log reduction (E. coli [4]): 3.69; Gel formation ([6]; binary mixtures of water/ethanol and glycerol/ethanol): did not form a gel |
| CCCCCCCCCCCCCC[n+]1ccn(Cc2ccc(C[n+]3ccn(Cc4ccc(C[n+]5ccn(Cc6ccccc6Cn6cc[n+](Cc7ccc(Cn8cc[n+](Cc9ccc(Cn%10cc[n+](CCCCCCCCCCCCCC)c%10)cc9)c8)cc7)c6)c5)cc4)c3)cc2)c1.[Br-].[Br-].[Cl-].[Cl-].[Cl-].[Cl-] [Compound 5] | 4 mg/L | 16 mg/L | 16 mg/L | 31 mg/L | 13.35 mg/L | Insoluble | Insoluble | (12.9 wt %) | Gel | Solution | Solution | (5.3 wt %) | Gel | (5.3 wt %) | Gel | 4.9 ppm | 200.3 ppm |  |  | 15 ppm |  |

Now from value to compound, other results behind:

| MIC S.A. (S. aureus) | MIC E. coli (E. coli [1]) | MIC P.A. (P. aeruginosa) | MIC C.A. (C. Albicans) | MIC GM [2] | State in solvent ([6]; Acetone) | State in solvent ([6]; Acetonitrile) | Concentration to form gel ([6]; EtOH) | State in solvent ([6]; EtOH) | State in solvent ([6]; Ethylene glycol) | State in solvent ([6]; Glycerol) | Concentration to form gel ([6]; nBuOH) | State in solvent ([6]; nBuOH) | Concentration to form gel ([6]; nPrOH) | State in solvent ([6]; nPrOH) | CMC in PBS [5] | CMC in DI H2O [5] | SMILES | fast killing in words (E. coli [4]) | % kill (E. coli [4]) | HC10 [3, 7] | also measured |
| --- | --- | --- | --- | --- | --- | --- | --- | --- | --- | --- | --- | --- | --- | --- | --- | --- | --- | --- | --- | --- | --- |
| 8 mg/L | 16 mg/L | 16 mg/L | 62 mg/L | 18.88 mg/L | Insoluble | Insoluble | (9.6 wt %) | Gel | opaque gels and Gel | opaque gels and Gel | (6.9 wt %) | Gel | (6.9 wt %) | Gel | 1.3 ppm | 38.5 ppm | CCCCCCCCCCCCCCCC[n+]1ccn(Cc2ccc(C[n+]3ccn(Cc4ccc(C[n+]5ccn(Cc6ccccc6Cn6cc[n+](Cc7ccc(Cn8cc[n+](Cc9ccc(Cn%10cc[n+](CCCCCCCCCCCCCCCC)c%10)cc9)c8)cc7)c6)c5)cc4)c3)cc2)c1.[Br-].[Br-].[Cl-].[Cl-].[Cl-].[Cl-] [Compound 6] |  |  | 15 ppm | Concentration to form gel ([6]; Ethylene glycol): (4.7 wt %); Concentration to form gel ([6]; Glycerol): (6.3 wt %) |
| 8 mg/L | 16 mg/L | 16 mg/L | 31 mg/L | 15.87 mg/L |  |  |  |  |  |  |  |  |  |  |  |  | [Br-].[Br-].[Cl-].[Cl-].[Cl-].[Cl-].c1ccc(Cn2cc[n+](Cc3ccc(Cn4cc[n+](Cc5ccc(Cn6cc[n+](CC7CCCCC7)c6)cc5)c4)cc3)c2)c(Cn2cc[n+](Cc3ccc(Cn4cc[n+](Cc5ccc(Cn6cc[n+](CC7CCCCC7)c6)cc5)c4)cc3)c2)c1 [Compound 7] |  |  | 12500 ppm | Gel formation ([6]; any of the solvents): not able to form gels |
